According to paper PMC6440935, “Characterization and phase I study of CLR457, an orally bioavailable pan-class I PI3-kinase inhibitor” (Investigational New Drugs, 2018):
Like-named read-outs stand apart in the source and are kept apart here.

Assays:
p110α = p110α (Homo sapiens, UniProt P42336); assay: In vitro PI3K biochemical assay, p110α
glucose and insulin = assay: First-in-human phase I study: pharmacodynamic markers glucose and insulin; format: in vivo; conditions: 100 mg QD; not clinically significant
Protocol: At the dose of 100 mg QD, there was an increase in the pharmacodynamic markers glucose and insulin, consistent with that observed in the preclinical models, however this increase was not clinically significant (CTCAE grade ≤ 2) (Fig. 3) and was within the range of expected changes based on preclinical data (Fig. 2).

[1] = target: PIK3CA E545K (helical domain mutation) (Homo sapiens, UniProt P42336, E545K); assay: In vitro profiling, PIK3CA mutant isoform E545K; format: biochemical; conditions: data not shown
[2] = human, in vivo
Protocol: The starting dose for CLR457 was 5 mg QD, based on preclinical toxicology studies in accordance with ICH guidelines, and was administered at the same time each day ±2 h in a fasted state. Various doses were planned up to 300 mg QD until MTD determination.
PK parameters including area under the curve (AUC), maximum serum concentration (Cmax), and time taken to reach Cmax (Tmax) were calculated using non-compartmental methods in Phoenix WinNonlin. [20]
[21] […] The Pharmacokinetic analysis set included all patients who had at least one blood sample providing evaluable PK data.

p110β = p110β (Homo sapiens, UniProt P42338); assay: In vitro PI3K biochemical assay, p110β
p110β, sequence (P42338 2-1070 limits assumed): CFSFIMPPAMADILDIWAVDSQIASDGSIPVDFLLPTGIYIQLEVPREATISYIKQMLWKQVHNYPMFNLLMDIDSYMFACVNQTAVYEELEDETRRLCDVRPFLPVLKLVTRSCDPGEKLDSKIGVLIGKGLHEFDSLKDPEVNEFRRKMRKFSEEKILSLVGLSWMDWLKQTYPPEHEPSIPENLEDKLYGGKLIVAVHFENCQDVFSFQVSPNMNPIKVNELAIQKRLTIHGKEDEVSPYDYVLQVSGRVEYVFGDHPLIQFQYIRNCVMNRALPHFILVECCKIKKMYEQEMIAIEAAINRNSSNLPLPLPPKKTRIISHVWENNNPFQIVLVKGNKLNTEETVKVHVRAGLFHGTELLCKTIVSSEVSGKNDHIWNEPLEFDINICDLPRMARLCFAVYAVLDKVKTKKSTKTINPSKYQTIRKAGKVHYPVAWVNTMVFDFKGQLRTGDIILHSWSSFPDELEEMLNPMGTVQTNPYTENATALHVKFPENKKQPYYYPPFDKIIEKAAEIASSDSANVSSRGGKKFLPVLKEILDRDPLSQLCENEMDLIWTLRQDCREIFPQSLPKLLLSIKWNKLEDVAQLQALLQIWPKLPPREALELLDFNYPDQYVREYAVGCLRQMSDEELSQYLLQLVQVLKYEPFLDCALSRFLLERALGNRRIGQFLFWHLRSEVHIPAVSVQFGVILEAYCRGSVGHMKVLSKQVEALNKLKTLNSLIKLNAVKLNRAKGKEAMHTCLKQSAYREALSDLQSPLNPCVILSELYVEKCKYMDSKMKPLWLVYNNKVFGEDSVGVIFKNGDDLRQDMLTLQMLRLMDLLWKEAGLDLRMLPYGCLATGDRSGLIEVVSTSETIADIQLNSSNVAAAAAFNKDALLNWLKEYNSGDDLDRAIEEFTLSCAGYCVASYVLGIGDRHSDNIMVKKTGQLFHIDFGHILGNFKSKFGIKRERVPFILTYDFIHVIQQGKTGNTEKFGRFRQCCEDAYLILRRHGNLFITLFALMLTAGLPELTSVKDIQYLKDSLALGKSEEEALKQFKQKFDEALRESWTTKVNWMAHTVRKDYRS
p110β, sequence (P27986 461-568 partner limits assumed): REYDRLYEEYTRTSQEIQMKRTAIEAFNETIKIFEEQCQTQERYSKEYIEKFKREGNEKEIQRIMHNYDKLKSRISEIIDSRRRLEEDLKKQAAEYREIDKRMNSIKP

p110α, sequence (P42336 21-1068 limits assumed): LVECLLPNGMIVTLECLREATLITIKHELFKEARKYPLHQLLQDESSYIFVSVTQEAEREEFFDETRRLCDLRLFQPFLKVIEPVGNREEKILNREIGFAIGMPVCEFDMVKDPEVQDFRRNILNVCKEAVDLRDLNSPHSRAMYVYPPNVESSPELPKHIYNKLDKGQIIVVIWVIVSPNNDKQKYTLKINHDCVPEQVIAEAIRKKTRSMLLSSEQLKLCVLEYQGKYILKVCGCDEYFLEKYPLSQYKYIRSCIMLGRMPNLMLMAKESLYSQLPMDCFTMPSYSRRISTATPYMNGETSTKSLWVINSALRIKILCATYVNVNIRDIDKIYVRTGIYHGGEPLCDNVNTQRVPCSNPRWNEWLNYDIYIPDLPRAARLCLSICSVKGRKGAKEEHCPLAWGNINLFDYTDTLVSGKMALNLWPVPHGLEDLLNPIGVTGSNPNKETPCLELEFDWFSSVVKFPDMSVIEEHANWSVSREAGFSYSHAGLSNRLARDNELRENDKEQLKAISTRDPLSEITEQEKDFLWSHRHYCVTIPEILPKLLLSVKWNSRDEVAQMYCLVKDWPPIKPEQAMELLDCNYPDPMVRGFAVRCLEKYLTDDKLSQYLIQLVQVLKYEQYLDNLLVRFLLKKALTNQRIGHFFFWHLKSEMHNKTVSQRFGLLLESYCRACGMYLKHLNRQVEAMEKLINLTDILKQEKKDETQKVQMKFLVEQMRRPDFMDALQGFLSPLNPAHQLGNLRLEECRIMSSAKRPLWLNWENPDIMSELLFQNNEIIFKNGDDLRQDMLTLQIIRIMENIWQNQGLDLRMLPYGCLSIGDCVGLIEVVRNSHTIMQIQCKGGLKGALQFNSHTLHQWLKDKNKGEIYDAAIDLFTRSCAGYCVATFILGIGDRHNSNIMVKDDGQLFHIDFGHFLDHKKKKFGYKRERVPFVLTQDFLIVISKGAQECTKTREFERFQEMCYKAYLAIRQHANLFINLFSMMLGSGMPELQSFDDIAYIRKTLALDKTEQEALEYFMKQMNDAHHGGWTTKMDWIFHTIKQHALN
PIK3CA E545K (helical domain mutation), sequence (P42336 21-1068 E545K limits assumed): as the sequence (P42336 21-1068 limits assumed) above, with E525K counted along it
PIK3CA E545K (helical domain mutation), sequence (P27986 461-568 partner limits assumed): as the sequence (P27986 461-568 partner limits assumed) above

## C[C@H]1OC(=O)N(c2cc(-c3cnc(N)nc3C(F)(F)F)nc(N3CCOCC3)n2)[C@H]1CO [CLR457]
p110α
  IC50: 89 ± 29 nM
Glucose and insulin
  CTCAE grade of increase in glucose and insulin: ≤ 2
[1]
  Inhibition of PIK3CA mutant isoform E545K: inhibited
[2]
  Geometric mean CL/F: 2610 to 4742 mL/h
  Median Tmax: 1 to 3.5 h
[2]; 5 mg
  AUC(0-24h), geometric mean (CV%): 1182 (40.8) hr*ng/mL
  AUCtau, geometric mean (CV%): 1665 (81.7) hr*ng/mL
  CL/F, geometric mean (CV%): 3003 (81.7) mL/h
  Cmax, geometric mean (CV%): 100 (0.40) ng/mL
  T1/2, acc, median (range): 13.9 (7.58–20.20) hr
  Tmax, median (range): 2.50 (1.00–4.00) hr
[2]; 10 mg
  AUC(0-24h), geometric mean (CV%): 2241 (7.5) hr*ng/mL
  AUCtau, geometric mean (CV%): 2846 (25.5) hr*ng/mL
  CL/F, geometric mean (CV%): 3514 (25.5) mL/h
  Cmax, geometric mean (CV%): 230 (24.5) ng/mL
  T1/2, acc, median (range): 7.92 (6.53–18.40) hr
  Tmax, median (range): 1.00 (0.92–2.00) hr
[2]; 20 mg
  AUC(0-24h), geometric mean (CV%): 6718 (41.6) hr*ng/mL
  AUCtau, geometric mean (CV%): 7662 (45.3) hr*ng/mL
  CL/F, geometric mean (CV%): 2610 (45.3) mL/h
  Cmax, geometric mean (CV%): 475 (24.2) ng/mL
  T1/2, acc, median (range): 11.8 (5.71–15.34) hr
  Tmax, median (range): 2.51 (2.05–3.95) hr
[2]; 40 mg
  AUC(0-24h), geometric mean (CV%): 9567 (34.9) hr*ng/mL
  AUCtau, geometric mean (CV%): 11,727 (39.0) hr*ng/mL
  CL/F, geometric mean (CV%): 3411 (39.0) mL/h
  Cmax, geometric mean (CV%): 687 (47.2) ng/mL
  T1/2, acc, median (range): 11.0 (4.13–27.90) hr
  Tmax, median (range): 2.07 (0.98–6.00) hr
[2]; 70 mg
  AUC(0-24h), geometric mean (CV%): 10,537 (47.6) hr*ng/mL
  AUCtau, geometric mean (CV%): 14,762 (37.1) hr*ng/mL
  CL/F, geometric mean (CV%): 4742 (37.1) mL/h
  Cmax, geometric mean (CV%): 732 (44.8) ng/mL
  T1/2, acc, median (range): 16.8 (11.9–23.70) hr
  Tmax, median (range): 3.50 (0.72–24.1) hr
[2]; 100 mg
  AUC(0-24h), geometric mean (CV%): 18,390 (25.8) hr*ng/mL
  AUCtau, geometric mean (CV%): 23,754 (40.4) hr*ng/mL
  CL/F, geometric mean (CV%): 4210 (40.4) mL/h
  Cmax, geometric mean (CV%): 1449 (28.7) ng/mL
  Exposure at steady state (AUC0-tau on Day 15): 23,754 ng*h/mL
  T1/2, acc, median (range): 12.1 (5.04–27.0) hr
  Tmax, median (range): 2.93 (0.50–7.53) hr
p110β
  IC50: 56 ± 35 nM
